Data taken from patent US7232929B2, “Amide derivatives of 2,2,3,3-tetramethylcyclopropane carboxylic acid” (Yissum Research Development Company of the Hebrew …, priority 2003, dated 2007).
Read-outs that look alike come from different tables or passages of the source.

Legend:
[1] = system: chemically induced convulsions (scMet) in mice; assay: subcutaneous metrazole test (scMet), mice, ip; format: in vivo; conditions: Mus musculus, read-out: ED50 in the scMet model
Excerpt: (§1) The first model, the maximal electroshock seizure test (MES), is used to show efficacy for antiepileptic agents against partial and generalized seizure type epilepsy, the common epilepsy among therapy resistant epileptic patients. The second model, the subcutaneous metrazole test (scMet) measures seizure threshold and is a standard screening procedure to show efficacy for agents against seizure threshold and absence seizures.

[2] = system: electrically induced convulsions (MES) in rats; assay: maximal electroshock seizure test (MES), rats, oral; format: in vivo, rat; conditions: for N/F (fraction of rats responded): MES; for ED50: Rattus norvegicus, oral administration, read-out: ED50 (median effective dose) in the MES model
Excerpt: as §1

[3] = system: chemically induced convulsions (scMet) in rats; assay: subcutaneous metrazole test (scMet), rats, oral; format: in vivo, rat; conditions: for ED50: Rattus norvegicus, po, read-out: ED50 in the scMet model; for N/F (fraction of rats responded): scMET
Excerpt: as §1

[4] = system: electrically induced convulsions (MES) in mice; assay: maximal electroshock seizure test (MES), mice, ip; format: in vivo; conditions: Mus musculus, ip administration, read-out: ED50 in the MES model
Excerpt: as §1

[5] = system: tactile allodynia in SNL rats; assay: rat spinal nerve ligation (SNL) model for neuropathic pain, von Frey filaments; format: in vivo
Procedure: Experiments were performed on male Sprague-Dawley rats (Harlan laboratories, Jerusalem, Israel) weighing 175–200 g. The mechanical sensitivity (tactile allodynia) of the foot was quantified by the occurrence of foot withdrawal in response to normally innocuous mechanical stimuli using nine different von Frey filaments (VFF) ranging from 0.6 to 26 g. The rats were placed on a metal mesh floor covered with a transparent plastic dome and a period of acclimatization was allowed prior to testing. VFF were applied from underneath the mesh floor to the plantar surface of the foot. Each trial consisted of repeated applications of each of the VFFs in an ascending order for 5 times, each for a period of 1 s. If the rat withdrew the foot at least 3 times out of 5 at a specific VFF no further ascending filaments were tested and this filament was considered as a withdrawal threshold (response). Mechanical stimulus trials with the series of ascending VFF were repeated 2 times for a given time point. The repeated measurements were averaged and taken as the paw withdrawal threshold on a given time point.
For drug testing, the effect on neuropathic pain was measured 5–6 days following operation. Rats responding to mechanical stimuli of 10 g or less (in the operated leg) were eligible for the study.
The procedure of ligation and cut of the spinal nerves for induction of neuropathic pain was performed as previously described by Sheen and Chung (Sheen, K. and Chung, J. M., Signs of neuropathic pain depend on signals from injured nerve fibers in a rat model, Brain Research 610: 62–68 (1993)). Briefly, under ketamine-xylazine anaesthesia rats were placed in a prone position and the left paraspinal muscles were separated from spinous processes at the L4-S2 level. Part of the L6 transverse process was removed and the L4–L6 spinal nerves were identified. The L5–L6 spinal nerves were isolated and tightly ligated and cut, distal to the dorsal root ganglion and proximal to the formation of the sciatic nerve. Following complete […] the wound was sutured.
For all the studies, appropriate amounts of the tested compound were suspended in 0.5% methylcellulose to a volume of 4 mL/kg body weight. TMC-Urea and methylcellulose (MC, vehicle) were administered intraperitoneally (i.p) to rats at postoperative days 7, 14 and 21 in a double blind randomized crossover manner.
Rats that obtained threshold of 15 g and above, back to pre-operation baseline, were regarded free of tactile allodynia.
Median effective dose (ED50) and its 95% confidence intervals were calculated using the pharmacodynamic software package WinNonlin, version 4.0.1 (SCI Software, Lexington, Ky., U.S.A.).
Threshold data from VFF testing are presented as actual threshold (absolute) in grams and as percent of absolute responders.
For statistical analyses the nonparametric two-tailed Mann-Whitney U was used. A p value less than 0.05 was considered significant.

rats [6] = assay: neurotoxicity, gait and stance test, rats, po; conditions: for protective index or safety of margin TD50/ED50: TD50 / MES ED50
Procedure: (§2) Neurotoxicity of the claimed agents was assessed in mice (ip. administration) in the rotorod ataxia test and in rats (po. administration) in the gait and stance test which assesses minimal neurotoxicity. The term qauntitating the neurotoxicity is the median neurological toxic dose (TD50).
The protective index (PI) is defined as the ratio of TD50 and ED50 (PI=TD50/ED50). The PI is used to show a useful separation between neurotoxicity and antiepileptic activity. The larger the PI, the better the separation between neurotoxicity and efficacious doses.

[7] = neurotoxicity, rotorod ataxia test, mice, ip; conditions: mouse, in vivo
Procedure: as §2

[8] = system: electrically induced convulsions (MES) in rats; conditions: literature comparison; cited from earlier work
[9] = system: electrically induced convulsions (MES) in mice; conditions: literature comparison; cited from earlier work
mouse model = conditions: cited from earlier work
[10] = system: animal models of epilepsy; conditions: cited from earlier work
rats [11] = conditions: comparison values; cited from earlier work
[12] = system: chemically induced convulsions (scMet) in rats; conditions: literature comparison, inactive at 250 mg/kg; cited from earlier work

CC1(C)C(C(=O)NC(N)=O)C1(C)C [Compound I, N-2,2,3,3-tetramethylcyclopropanecarbonyl urea]
ED50 [1]: 125 mg/kg
N/F (fraction of rats responded) ([2]; dose 10 mg/kg): 0/8
N/F (fraction of rats responded) ([2]; dose 20 mg/kg): 4/8
N/F (fraction of rats responded) ([2]; dose 40 mg/kg): 5/8
N/F (fraction of rats responded) ([2]; dose 80 mg/kg): 7/8
ED50 [2]: 29.4 mg/kg
ED50 [3]: 91.8 mg/kg
N/F (fraction of rats responded) ([3]; dose 25 mg/kg): 1/8
N/F (fraction of rats responded) ([3]; dose 50 mg/kg): 3/8
N/F (fraction of rats responded) ([3]; dose 100 mg/kg): 3/8
N/F (fraction of rats responded) ([3]; dose 200 mg/kg): 6/8
N/F (fraction of rats responded) ([3]; dose 400 mg/kg): 8/8
ED50 [4]: 90 mg/kg
Allodynic response, Total responders ([5]; 20 mg/kg ip): 0/9
Allodynic response (number of rats responded/total number of rats) ([5]; 20 mg/kg ip, 30 min): 0/9
Allodynic response (number of rats responded/total number of rats) ([5]; 20 mg/kg ip, 60 min): 0/9
Allodynic response (number of rats responded/total number of rats) ([5]; 20 mg/kg ip, 120 min): 0/9
Allodynic response (number of rats responded/total number of rats) ([5]; 20 mg/kg ip, 180 min): 0/9
Allodynic response (number of rats responded/total number of rats) ([5]; 20 mg/kg ip, 240 min): 0/9
Allodynic response, Total responders ([5]; 60 mg/kg ip): 0/9
Allodynic response (number of rats responded/total number of rats) ([5]; 60 mg/kg ip, 30 min): 0/9
Allodynic response (number of rats responded/total number of rats) ([5]; 60 mg/kg ip, 60 min): 0/9
Allodynic response (number of rats responded/total number of rats) ([5]; 60 mg/kg ip, 120 min): 0/9
Allodynic response (number of rats responded/total number of rats) ([5]; 60 mg/kg ip, 180 min): 0/9
Allodynic response (number of rats responded/total number of rats) ([5]; 60 mg/kg ip, 240 min): 0/9
Allodynic response, Total responders ([5]; 120 mg/kg ip): 3/9
Allodynic response (number of rats responded/total number of rats) ([5]; 120 mg/kg ip, 30 min): 0/9
Allodynic response (number of rats responded/total number of rats) ([5]; 120 mg/kg ip, 60 min): 1/9
Allodynic response (number of rats responded/total number of rats) ([5]; 120 mg/kg ip, 120 min): 3/9
Allodynic response (number of rats responded/total number of rats) ([5]; 120 mg/kg ip, 180 min): 3/9
Allodynic response (number of rats responded/total number of rats) ([5]; 120 mg/kg ip, 240 min): 3/9
Allodynic response, Total responders ([5]; 180 mg/kg ip): 3/7
Allodynic response (number of rats responded/total number of rats) ([5]; 180 mg/kg ip, 30 min): 0/7
Allodynic response (number of rats responded/total number of rats) ([5]; 180 mg/kg ip, 60 min): 1/7
Allodynic response (number of rats responded/total number of rats) ([5]; 180 mg/kg ip, 120 min): 3/7
Allodynic response (number of rats responded/total number of rats) ([5]; 180 mg/kg ip, 180 min): 3/7
Allodynic response (number of rats responded/total number of rats) ([5]; 180 mg/kg ip, 240 min): 3/7
Allodynic response, Total responders ([5]; 240 mg/kg ip): 9/10
Allodynic response (number of rats responded/total number of rats) ([5]; 240 mg/kg ip, 30 min): 0/10
Allodynic response (number of rats responded/total number of rats) ([5]; 240 mg/kg ip, 60 min): 2/10
Allodynic response (number of rats responded/total number of rats) ([5]; 240 mg/kg ip, 120 min): 8/10
Allodynic response (number of rats responded/total number of rats) ([5]; 240 mg/kg ip, 180 min): 8/10
Allodynic response (number of rats responded/total number of rats) ([5]; 240 mg/kg ip, 240 min): 8/10
ED50 ([5]; Rattus norvegicus, ip, 2 h, i.p., at 120 min post-dose, read-out: ED50 (antiallodynic, rats free of tactile allodynia)): 171 mg/kg
effect on tactile allodynia ([5]; i.p., significant reduction at 120 to 240 min at 120-240 mg/kg): decreased tactile allodynia in a dose-dependent manner
protective index or safety of margin TD50/ED50 (rats [6]): 18.5
TD50 (median neurological toxic dose) (rats [6]; oral administration): 538 mg/kg

CONC(=O)C1C(C)(C)C1(C)C [Compound V, N-methoxy-2,2,3,3-tetramethylcyclopropane carboxamide]
TD50 [7]: 166 mg/kg
ED50 [1]: 74 mg/kg
ED50 [3]: 35 mg/kg
ED50 [4]: 115 mg/kg

CC1(C)C(C(=O)Nc2nnc(S(N)(=O)=O)s2)C1(C)C [Compound VI, 5-(2,2,3,3-tetramethylcyclopropanecarbonylamido)-1,3,4-thiadiazole-2-sulfonamide]
ED50 [4]: 16 mg/kg

CN(C)C(=O)NC(=O)C1C(C)(C)C1(C)C [II, 1,1-N,N-dimethyl-2,2,3,3-tetramethylcyclopropanecarbonyl urea]
ED50 [2]: 87 mg/kg
neurotoxicity (rats [6]; oral, doses up to 500 mg/kg): no neurotoxicity

CNC(=O)C1C(C)(C)C1(C)C [M-TMCD, N-methyl 2,2,3,3-tetramethylcyclopropane carboxamide]
ED50 in rat-MES [8]: 82 mg/kg
ED50 in mice-MES [9]: 99 mg/kg
protective index or safety of margin TD50/ED50 (rats [6]): 2
teratogenicity (mouse model; mouse, in vivo): not teratogenic
anticonvulsant potency relative to VPA [10]: approximately 10 times

CC1(C)C(C(=O)NCC(N)=O)C1(C)C [TMC glycinamide, N-2,2,3,3-tetramethylcyclopropyl carbonyl-glycinamide]
ED50 in rat-MES [8]: 82 mg/kg
TD50 (median neurological toxic dose) (rats [11]): above 500 mg/kg
ED50 in mice-MES [9]: 173 mg/kg
protective index or safety of margin TD50/ED50 (rats [6]): > 6.1
ED50 in the scMet model [12]: > 250 mg/kg

CC1(C)C(C(N)=O)C1(C)C [tetramethylcyclopropane carboxamide]
teratogenicity (mouse model; mouse model): not teratogenic
